pIC50: −log10 of the molar value.

One test concerns the target T1, Gonadotropin-releasing hormone receptor (Rattus norvegicus) (UniProt P30969).
T1 sequence (whole entry): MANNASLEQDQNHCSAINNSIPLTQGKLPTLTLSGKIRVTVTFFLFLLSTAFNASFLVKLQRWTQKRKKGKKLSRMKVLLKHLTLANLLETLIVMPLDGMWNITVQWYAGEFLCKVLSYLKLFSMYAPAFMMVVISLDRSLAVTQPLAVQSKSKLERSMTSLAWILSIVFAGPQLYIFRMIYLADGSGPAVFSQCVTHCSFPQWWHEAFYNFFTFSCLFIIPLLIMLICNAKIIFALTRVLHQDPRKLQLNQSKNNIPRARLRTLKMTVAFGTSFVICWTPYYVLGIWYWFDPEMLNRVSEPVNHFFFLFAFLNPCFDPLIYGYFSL
The test can be described thus: Inhibitory activity at GnRH receptor in rat pituitary membranes. The test is classed as cell membranes. Further details: concentration or dose not given beside the values. The conditions noted are these: concentration not given here.
With `NCCCOc1c(-c2ccccc2)c(O)nc2cc(Cl)ccc12`, the inhibition – broadly, the change of the read-out against control, counted positive when it falls – is < 50%.
On the same count and under the same terms, the figure for `Cc1cc(C)cc(-c2c(O)nc3ccc(Cl)cc3c2OCC2CCCN(C)C2)c1` (stereo not drawn) is < 50%; for `Oc1nc2cc(Cl)ccc2c(OCc2cccnc2)c1-c1ccccc1` it is < 50%; for `Oc1nc2cc(Cl)ccc2c(OCc2ccncc2)c1-c1ccccc1` it is < 50%.
For the compound `Cc1cc(C)cc(-c2c(O)nc3ccc(C)cc3c2OCC2CCCN(C)C2)c1` (stereo not drawn), the inhibition is < 50%.
As to `Cc1cc(C)cc(-c2c(O)nc3c(Cl)cccc3c2OCC2CCCN(C)C2)c1` (stereo not drawn), the inhibition was < 50%.
Take `COc1ccc2nc(O)c(-c3cc(C)cc(C)c3)c(OCC3CCCN(C)C3)c2c1` (stereo not drawn): the inhibition is < 50%.
Take `Oc1nc2cc(Cl)ccc2c(OCc2ccccc2)c1-c1ccccc1`: the inhibition is < 50%.
Same read-out and setting: in the case of `O=C1c2ccccc2C(=O)N1CCCOc1c(-c2ccccc2)c(O)nc2cc(Cl)ccc12` it was < 50%.
For `Cc1cc(C)cc(-c2c(O)nc3cccc(Cl)c3c2OCC2CCCN(C)C2)c1` (stereo not drawn), the inhibition is < 50%.
Same read-out and setting: in the case of `Cc1cc(C)cc(-c2c(O)nc3ccc([N+](=O)[O-])cc3c2OCC2CCCN(C)C2)c1` (stereo not drawn) it was < 50%; in that of `Oc1nc2cc(Cl)ccc2c(OCc2ccc3ccccc3n2)c1-c1ccccc1`, < 50%; in that of `Cc1cc(C)cc(-c2c(O)nc3cc(F)ccc3c2OCC2CCCN(C)C2)c1` (stereo not drawn), < 50%.
The same measure, in the same setting: the figure for `Cc1cc(C)cc(-c2c(O)nc3cc(Cl)ccc3c2OCC2CCNCC2)c1` is < 50%.
Turning to `COC(=O)c1ccc2c(OCC3CCCN(C)C3)c(-c3cc(C)cc(C)c3)c(O)nc2c1` (stereo not drawn), the inhibition is < 50%.
For the compound `CN(C)CCOc1c(-c2ccccc2)c(O)nc2cc(Cl)ccc12`, the inhibition was < 50%.

A further test concerns the target T2, Gonadotropin-releasing hormone receptor (Rattus norvegicus, UniProt P30969).
T2 sequence (P30969 whole entry): T1 sequence (whole entry)
The experiment in a line: Inhibition of [125I]buserelin to GnRH receptor in rat pituitary membranes.
Details: not given
In kind it is cell membranes, Membrane.
As to `Cc1cc(C)cc(-c2c(O)nc3cc(Cl)ccc3c2OCC2CCCCN(C)C2)c1` (stereo not drawn), the pIC50 – broadly, the negative decadic logarithm of the IC50, by convention in mol/L – is 5.89.
`Cc1cc(C)cc(-c2c(OCCC3CCCCN3C)c3cc([N+](=O)[O-])c(Cl)cc3[nH]c2=O)c1` (stereo not drawn) gave a pIC50 of 7.49.
Consider `Cc1cc(C)cc(-c2c(OCCC3CCCCN3C)c3ccc(C(F)(F)F)cc3[nH]c2=O)c1` (stereo not drawn), for which the pIC50 was 7.00.
As for `Cc1cc(C)cc(-c2c(O)nc3cc(Cl)ccc3c2OCC(C)CN(C)C)c1` (stereo not drawn), the pIC50 is 5.20.
In turn, `CN(C)CCCOc1c(-c2ccccc2)c(O)nc2cc(Cl)ccc12` gave a pIC50 of 5.05.
Regarding `Cc1cc(C)cc(-c2c(OCCC3CCCCN3C)c3ccc(Br)cc3[nH]c2=O)c1` (stereo not drawn), the pIC50 was 6.82.
As to `Cc1cc(C)cc(-c2c(O)nc3cc(Cl)ccc3c2OCCC2CCCN2C)c1` (stereo not drawn), the pIC50 is 6.70.
`Cc1cc(C)cc(-c2c(O)nc3cc([N+](=O)[O-])ccc3c2OCC2CCCN(C)C2)c1` (stereo not drawn) had a pIC50 of 5.85.
`Cc1cc(C)cc(-c2c(O)nc3cc(Cl)ccc3c2OCC2CN(C)CCO2)c1` (stereo not drawn) had a pIC50 of 5.85.
`Cc1cc(C)cc(-c2c(O)nc3cc(Cl)ccc3c2OCC2CCCCN2C)c1` (stereo not drawn) gave a negative-log IC50 (pIC50) of 5.40.
The compound `CN1CCCCC1COc1c(-c2ccccc2)c(=O)[nH]c2cc(Cl)ccc12` (stereo not drawn) had a pIC50 of 5.05.
Regarding `CN1CCCC(COc2c(-c3ccccc3)c(O)nc3cc(Cl)ccc23)C1` (stereo not drawn), the pIC50 is 5.40.
Compound `Cc1cc(C)cc(-c2c(OCC3CCCN(C)C3)c3ccc(C)cc3[nH]c2=O)c1` (stereo not drawn) had a pIC50 of 5.41.
The compound `Cc1cc(C)cc(-c2c(O)nc3cc(Cl)ccc3c2OC2CCCN(C)CC2)c1` (stereo not drawn) had a pIC50 of 6.52.
On to `Cc1cc(C)cc(-c2c(O)nc3cc(Cl)ccc3c2OCC2CCCNC2)c1` (stereo not drawn), for which the pIC50 was 6.30.
The compound `CN1CCCCC(Oc2c(-c3ccccc3)c(O)nc3cc(Cl)ccc23)C1` (stereo not drawn) had a pIC50 of 5.15.
For `Cc1cc(C)cc(-c2c(O)nc3cc(Cl)ccc3c2OCC2CCN(C)C2)c1` (stereo not drawn), the pIC50 is 6.30.
Take `Cc1cc(C)cc(-c2c(OCCCN3CCCCC3)c3ccc(Cl)cc3[nH]c2=O)c1`: the pIC50 is 5.12.
`Oc1nc2cc(Cl)ccc2c(OCc2ccccn2)c1-c1ccccc1`: the pIC50 is 5.00.
For the compound `Cc1cc(C)cc(-c2c(OC3CCN(C)CC3)c3ccc(Cl)cc3[nH]c2=O)c1`, the pIC50 is 5.89.
For the compound `Cc1cc(C)cc(-c2c(OCCC3CCCCN3C)c3ccc(Cl)cc3[nH]c2=O)c1` (stereo not drawn), the negative logarithm of the IC50 (pIC50) is 6.70.
On the same count and under the same terms, in the case of `Cc1cc(C)cc(-c2c(OCC3CCCN(C)C3)c3ccc(Cl)cc3[nH]c2=O)c1` (stereo not drawn) it was 6.52.
